Test results reported in ChEMBL document CHEMBL4177665, “Inhibitory effect of moschamine isolated from Carthamus tinctorius on LPS-induced inflammatory mediators via AP-1 and STAT1/3 inactivation in RAW 264.7 macrophages” (Bioorg Med Chem Lett, 2017).
Each block holds one compound with its values, some of them ahead of it. Activity calls are given as the source filed them. The rule behind the calls is not given here.

Key:
RAW264.7 [1] = test: Cytotoxicity against mouse RAW264.7 cells assessed as reduction in cell viability up to 200 uM measured after 24 hrs in absence of LPS by MTT assay; format: cell-based; conditions: raw264.7, 24 h
RAW264.7 [2] = test: Antiinflammatory activity in mouse RAW264.7 cells assessed as inhibition of LPS-induced PGE2 production pretreated for 1 hr followed by LPS addition measured after 24 hrs; format: functional, cell-based
RAW264.7 [3] = test: Cytotoxicity against mouse RAW264.7 cells assessed as reduction in cell viability up to 200 uM measured after 24 hrs in presence of LPS by MTT assay; format: cell-based; conditions: raw264.7, 24 h
RAW264.7 [4] = test: Antiinflammatory activity in mouse RAW264.7 cells assessed as inhibition of LPS-induced nitric oxide production measured after 24 hrs by Griess assay; format: functional, cell-based; conditions: RAW264.7, 24 h
RAW264.7 [5] = test: Antiinflammatory activity in mouse RAW264.7 cells assessed as inhibition of LPS-stimulated IL-6 production pretreated for 1 hr followed by LPS addition measured after 24 hrs by enzyme immunoassay; format: functional, cell-based
RAW264.7 [6] = test: Inhibition of LPS-induced c-JUN expression in mouse RAW264.7 cells at 50 uM pretreated for 1 hr followed by LPS-stimulation measured up to 30 mins by Western blot analysis; format: functional, cell-based
RAW264.7 [7] = test: Inhibition of LPS-induced c-FOS expression in mouse RAW264.7 cells at 50 uM pretreated for 1 hr followed by LPS-stimulation measured after 15 mins by Western blot analysis; format: functional, cell-based
RAW264.7 [8] = test: Inhibition of LPS-induced JNK phosphorylation in mouse RAW264.7 cells at 50 uM pretreated for 1 hr followed by LPS-stimulation measured up to 30 mins by Western blot analysis; format: cell-based
[9] = molecular target: Tyrosine-protein kinase JAK1 (Mus musculus) (UniProt P52332); test: Inhibition of JAK1 in LPS-stimulated mouse RAW264.7 cells assessed as reduction in STAT3 phosphorylation at […] residue pretreated for 1 hr followed by LPS-stimulation by Western blot analysis; format: cell-based
Sequence of Tyrosine-protein kinase JAK1 (Mus musculus) (P52332 whole entry): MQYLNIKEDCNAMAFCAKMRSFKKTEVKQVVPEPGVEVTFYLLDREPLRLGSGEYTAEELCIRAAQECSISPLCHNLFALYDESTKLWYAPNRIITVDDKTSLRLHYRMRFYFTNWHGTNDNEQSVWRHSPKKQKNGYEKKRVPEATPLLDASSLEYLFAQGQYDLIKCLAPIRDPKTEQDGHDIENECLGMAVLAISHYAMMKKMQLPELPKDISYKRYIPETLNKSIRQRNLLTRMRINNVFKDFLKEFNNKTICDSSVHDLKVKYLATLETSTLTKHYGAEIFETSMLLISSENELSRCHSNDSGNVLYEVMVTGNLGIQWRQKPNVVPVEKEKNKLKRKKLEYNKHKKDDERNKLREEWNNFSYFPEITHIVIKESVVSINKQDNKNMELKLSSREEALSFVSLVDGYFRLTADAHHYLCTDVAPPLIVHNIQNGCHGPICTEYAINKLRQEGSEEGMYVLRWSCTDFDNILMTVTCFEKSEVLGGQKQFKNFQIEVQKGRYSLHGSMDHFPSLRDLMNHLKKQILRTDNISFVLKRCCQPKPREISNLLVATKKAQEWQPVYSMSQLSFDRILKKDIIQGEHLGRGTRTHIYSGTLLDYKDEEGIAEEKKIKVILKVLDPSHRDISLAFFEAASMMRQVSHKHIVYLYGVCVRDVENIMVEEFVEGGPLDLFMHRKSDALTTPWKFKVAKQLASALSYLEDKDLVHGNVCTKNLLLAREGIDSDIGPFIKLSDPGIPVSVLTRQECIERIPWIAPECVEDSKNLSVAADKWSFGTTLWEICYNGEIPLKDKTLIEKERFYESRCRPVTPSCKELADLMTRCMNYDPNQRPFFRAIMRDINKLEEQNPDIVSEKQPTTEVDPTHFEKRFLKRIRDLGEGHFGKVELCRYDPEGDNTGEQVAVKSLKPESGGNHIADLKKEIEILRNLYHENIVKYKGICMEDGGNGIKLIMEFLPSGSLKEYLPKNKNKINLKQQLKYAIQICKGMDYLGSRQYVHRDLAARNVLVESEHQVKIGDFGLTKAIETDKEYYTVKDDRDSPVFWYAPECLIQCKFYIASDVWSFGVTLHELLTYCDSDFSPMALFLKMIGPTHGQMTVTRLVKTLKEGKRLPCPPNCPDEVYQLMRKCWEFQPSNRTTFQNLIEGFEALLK

[10] = molecular target: Transcription factor Jun (Mus musculus) (UniProt P05627); test: Inhibition of LPS-induced c-JUN phosphorylation in mouse RAW264.7 cells at 50 uM pretreated for 1 hr followed by LPS-stimulation measured up to 30 mins by Western blot analysis; format: cell-based
Sequence of Transcription factor Jun (Mus musculus) (P05627 whole entry): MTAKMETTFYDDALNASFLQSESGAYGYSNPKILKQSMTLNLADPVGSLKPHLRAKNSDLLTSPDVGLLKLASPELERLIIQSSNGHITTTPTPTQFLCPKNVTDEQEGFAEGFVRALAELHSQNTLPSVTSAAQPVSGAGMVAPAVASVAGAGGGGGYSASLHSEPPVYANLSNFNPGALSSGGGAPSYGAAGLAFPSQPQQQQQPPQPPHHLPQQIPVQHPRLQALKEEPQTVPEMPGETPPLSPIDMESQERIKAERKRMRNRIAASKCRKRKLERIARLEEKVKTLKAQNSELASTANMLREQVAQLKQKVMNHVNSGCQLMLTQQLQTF

RAW264.7 [11] = test: Antiinflammatory activity in mouse RAW264.7 cells assessed as inhibition of LPS-stimulated mPGES1 mRNA expression at 50 uM measured up to 12 hrs by SYBR green dye based RT-PCR analysis; format: functional, cell-based
RAW264.7 [12] = test: Antiinflammatory activity in mouse RAW264.7 cells assessed as inhibition of LPS-stimulated IL-6 mRNA expression at 50 uM measured up to 6 hrs by SYBR green dye based RT-PCR analysis; format: functional, cell-based
RAW264.7 [13] = test: Antiinflammatory activity in mouse RAW264.7 cells assessed as inhibition of LPS-stimulated COX2 mRNA expression at 50 uM measured up to 12 hrs by SYBR green dye based RT-PCR analysis; format: functional, cell-based
RAW264.7 [14] = test: Inhibition of NFKappaB (unknown origin) expressed in LPS-stimulated mouse RAW264.7 cells by luciferase reporter gene assay; format: cell-based; conditions: Homo sapiens
RAW264.7 [15] = test: Inhibition of LPS-induced ERK phosphorylation in mouse RAW264.7 cells at 50 uM pretreated for 1 hr followed by LPS-stimulation measured up to 30 mins by Western blot analysis; format: cell-based
[16] = molecular target: Protein c-Fos (Mus musculus) (UniProt P01101); test: Inhibition of LPS-induced c-FOS phosphorylation in mouse RAW264.7 cells at 50 uM pretreated for 1 hr followed by LPS-stimulation measured after 15 mins by Western blot analysis; format: cell-based
Sequence of Protein c-Fos (Mus musculus) (P01101 whole entry): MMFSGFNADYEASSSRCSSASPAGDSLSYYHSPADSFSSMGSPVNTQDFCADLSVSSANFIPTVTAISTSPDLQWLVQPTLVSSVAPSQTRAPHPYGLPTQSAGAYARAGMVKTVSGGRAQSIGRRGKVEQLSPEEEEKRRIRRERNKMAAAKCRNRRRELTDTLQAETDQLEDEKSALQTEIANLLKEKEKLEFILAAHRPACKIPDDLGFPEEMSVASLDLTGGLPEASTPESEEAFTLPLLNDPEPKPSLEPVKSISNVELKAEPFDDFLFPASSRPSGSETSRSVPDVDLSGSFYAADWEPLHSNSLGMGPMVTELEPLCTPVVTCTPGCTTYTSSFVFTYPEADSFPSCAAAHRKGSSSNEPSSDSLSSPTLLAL

[17] = molecular target: Tyrosine-protein kinase JAK1 (Mus musculus) (UniProt P52332); test: Inhibition of JAK1 in LPS-stimulated mouse RAW264.7 cells assessed as reduction in STAT1 phosphorylation at S727 residue pretreated for 1 hr followed by LPS-stimulation by Western blot analysis; format: cell-based
[18] = molecular target: Tyrosine-protein kinase JAK1 (Mus musculus) (UniProt P52332); test: Inhibition of JAK1 in LPS-stimulated mouse RAW264.7 cells assessed as reduction in STAT1 phosphorylation at Y701 residue pretreated for 1 hr followed by LPS-stimulation by Western blot analysis; format: cell-based
RAW264.7 [19] = test: Antiinflammatory activity in mouse RAW264.7 cells assessed as inhibition of LPS-induced nitric oxide production pretreated for 1 hr followed by LPS stimulation measured after 24 hrs by Griess assay; format: functional, cell-based
RAW264.7 [20] = test: Antiinflammatory activity in mouse RAW264.7 cells assessed as inhibition of LPS-stimulated iNOS mRNA expression at 50 uM measured up to 12 hrs by SYBR green dye based RT-PCR analysis; format: functional, cell-based
RAW264.7 [21] = test: Antiinflammatory activity in mouse RAW264.7 cells assessed as inhibition of LPS-stimulated IL1beta production in mouse RAW264.7 cells pretreated for 1 hr followed by LPS addition measured after 24 hrs by enzyme immunoassay; format: functional, cell-based
RAW264.7 [22] = test: Antiinflammatory activity in mouse RAW264.7 cells assessed as inhibition of LPS-stimulated iNOS expression at 12.5 to 50 uM pretreated for 1 hr followed by LPS-stimulation measured after 12 hrs by Western blot analysis; format: functional, cell-based
RAW264.7 [23] = test: Antiinflammatory activity in mouse RAW264.7 cells assessed as inhibition of LPS-stimulated IL1beta mRNA expression at 50 uM measured up to 6 hrs by SYBR green dye based RT-PCR analysis; format: functional, cell-based
RAW264.7 [24] = test: Antiinflammatory activity in mouse RAW264.7 cells assessed as inhibition of LPS-stimulated IL-6 production in mouse RAW264.7 cells at 50 uM pretreated for 1 hr followed by LPS addition measured after 24 hrs by enzyme immunoassay relative to control; format: functional
[25] = molecular target: MAP kinase p38 (Mus musculus) (UniProt P47811+O08911+Q9WUI1+Q9Z1B7); test: Inhibition of LPS-induced p38 phosphorylation in mouse RAW264.7 cells at 50 uM pretreated for 1 hr followed by LPS-stimulation measured up to 30 mins by Western blot analysis; format: cell-based
RAW264.7 [26] = test: Antiinflammatory activity in mouse RAW264.7 cells assessed as inhibition of LPS-stimulated mPGES1 expression at 12.5 to 50 uM pretreated for 1 hr followed by LPS-stimulation measured after 12 hrs by Western blot analysis; format: functional, cell-based
RAW264.7 [27] = test: Antiinflammatory activity in mouse RAW264.7 cells assessed as inhibition of LPS-stimulated IL1beta production in mouse RAW264.7 cells at 50 uM pretreated for 1 hr followed by LPS addition measured after 24 hrs by enzyme immunoassay relative to control; format: functional
[28] = molecular target: Transcription factor Jun (Homo sapiens) (UniProt P05412); test: Inhibition of AP1 (unknown origin) expressed in LPS-stimulated mouse RAW264.7 cells at 12.5 to 50 uM pretreated for 1 hr followed by LPS-stimulation measured after 18 hrs by luciferase reporter gene assay; format: cell-based
Sequence of Transcription factor Jun (Homo sapiens) (P05412 whole entry): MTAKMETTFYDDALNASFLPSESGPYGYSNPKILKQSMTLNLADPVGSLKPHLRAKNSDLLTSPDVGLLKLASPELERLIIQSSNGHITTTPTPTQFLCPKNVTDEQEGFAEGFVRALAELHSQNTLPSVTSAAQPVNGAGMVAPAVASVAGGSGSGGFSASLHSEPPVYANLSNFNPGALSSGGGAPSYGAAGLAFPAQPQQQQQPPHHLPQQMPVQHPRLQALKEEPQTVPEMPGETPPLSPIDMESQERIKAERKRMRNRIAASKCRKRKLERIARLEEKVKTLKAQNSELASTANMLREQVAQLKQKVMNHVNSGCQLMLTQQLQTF

RAW264.7 [29] = test: Antiinflammatory activity in mouse RAW264.7 cells assessed as inhibition of LPS-stimulated COX2 expression at 12.5 to 50 uM pretreated for 1 hr followed by LPS-stimulation measured after 12 hrs by Western blot analysis; format: functional, cell-based

Structure (SMILES): CC(=N)NCCCC[C@H](N)C(=O)O [L-NIL]
IC50 (RAW264.7 [4]): 28.3 µM

Structure (SMILES): COc1cc(C[C@@H](CO)[C@H](CO)Cc2ccc(O)c(OC)c2)ccc1O [(+)-SECOISOLARICIRESINOL]
Activity (RAW264.7 [1]): Non-Toxic | IC50 (RAW264.7 [2]): > 100 µM | Activity (RAW264.7 [3]): Non-Toxic | IC50 (RAW264.7 [4]): > 200 µM

Structure (SMILES): CC(=O)OC[C@H]1O[C@@H](O[C@H](C)[C@H]2C[C@H](O)[C@H]3[C@@H]4CCC5=CC(=O)CC[C@]5(C)[C@H]4CC[C@@]32C)[C@H](O)[C@@H](O)[C@@H]1O[C@@H]1O[C@H](CO)[C@@H](O)[C@H](O)[C@H]1O
Activity (RAW264.7 [1]): Non-Toxic | IC50 (RAW264.7 [2]): > 100 µM | Activity (RAW264.7 [3]): Non-Toxic | IC50 (RAW264.7 [4]): > 200 µM

Structure (SMILES): COc1cc(/C=C/C(=O)NCCc2c[nH]c3ccc(O)cc23)ccc1O [N-FERULOYL SEROTONIN]
inhibition (RAW264.7 [5]): Dose-dependent effect | inhibition (RAW264.7 [6]): inactive | inhibition (RAW264.7 [7]): Active | inhibition (RAW264.7 [8]): inactive | inhibition [9]: Dose-dependent effect | inhibition [10]: inactive | inhibition (RAW264.7 [11]): Active | inhibition (RAW264.7 [12]): Active | inhibition (RAW264.7 [13]): Active | inhibition (RAW264.7 [14]): inactive | inhibition (RAW264.7 [15]): Active | inhibition [16]: Active | inhibition [17]: Dose-dependent effect | inhibition [18]: Dose-dependent effect | Activity (RAW264.7 [1]): Non-Toxic | inhibition (RAW264.7 [19]): Dose-dependent effect | inhibition (RAW264.7 [20]): Active | inhibition (RAW264.7 [21]): Dose-dependent effect | inhibition (RAW264.7 [22]): Active | inhibition (RAW264.7 [23]): Active | inhibition at 50 µM (RAW264.7 [24]): 25.1% | inhibition [25]: Active | inhibition (RAW264.7 [26]): Active | IC50 (RAW264.7 [2]): 14.7 µM | inhibition (RAW264.7 [2]): Dose-dependent effect | Activity (RAW264.7 [3]): Non-Toxic | IC50 (RAW264.7 [4]): 123 µM | inhibition at 50 µM (RAW264.7 [27]): 52.2% | inhibition [28]: Active | inhibition (RAW264.7 [29]): Active

Structure (SMILES): COc1cc(/C=C/C(=O)NCCc2c[nH]c3ccc(O)c(-c4c(O)ccc5[nH]cc(CCNC(=O)/C=C/c6ccc(O)cc6)c45)c23)ccc1O
Activity (RAW264.7 [1]): Non-Toxic | IC50 (RAW264.7 [2]): > 100 µM | Activity (RAW264.7 [3]): Non-Toxic | IC50 (RAW264.7 [4]): > 200 µM

Second part, led by results:

IC50 (RAW264.7 [2]): > 100 µM | IC50 (RAW264.7 [4]): > 200 µM
Structure (SMILES): COc1ccc(C[C@H]2COC(=O)[C@]2(O)Cc2ccc(O[C@@H]3O[C@H](CO)[C@@H](O)[C@H](O)[C@H]3O)c(OC)c2)cc1OC
Activity (RAW264.7 [1]): Non-Toxic | Activity (RAW264.7 [3]): Non-Toxic

IC50 (RAW264.7 [2]): 89.8 µM | IC50 (RAW264.7 [4]): 135 µM
Structure (SMILES): O=C(/C=C/c1ccc(O)cc1)NCCc1c[nH]c2ccc(O[C@@H]3O[C@H](CO)[C@@H](O)[C@H](O)[C@H]3O)cc12
Activity (RAW264.7 [1]): Non-Toxic | Activity (RAW264.7 [3]): Non-Toxic

IC50 (RAW264.7 [2]): 43.2 µM | IC50 (RAW264.7 [4]): 164 µM
Structure (SMILES): O=C(/C=C/c1ccc(O)cc1)NCCc1c[nH]c2ccc(O)cc12 [N-P-COUMAROYL SEROTONIN]
Activity (RAW264.7 [1]): Non-Toxic | Activity (RAW264.7 [3]): Non-Toxic

IC50 (RAW264.7 [2]): > 100 µM | IC50 (RAW264.7 [4]): > 200 µM
Structure (SMILES): COc1cc(/C=C/C(=O)NCCc2c[nH]c3ccc(O)c(-c4c(O)ccc5[nH]cc(CCNC(=O)/C=C/c6ccc(O)c(OC)c6)c45)c23)ccc1O
Activity (RAW264.7 [1]): Non-Toxic | Activity (RAW264.7 [3]): Non-Toxic

IC50 (RAW264.7 [2]): > 100 µM | IC50 (RAW264.7 [4]): > 200 µM
Structure (SMILES): O=C(/C=C/c1ccc(O)cc1)NCCc1c[nH]c2ccc(O)c(-c3c(O)ccc4[nH]cc(CCNC(=O)/C=C/c5ccc(O)cc5)c34)c12
Activity (RAW264.7 [1]): Non-Toxic | Activity (RAW264.7 [3]): Non-Toxic
